{"source": "patent US7538112B2", "about": "“HIV integrase inhibitors” (Merck & Co., Inc., priority 2004, dated 2009)"}
{"system": "viruses containing mutations in the integrase gene (T66I/S153Y, N155S, and F121Y)", "assay": "Sensitivity of viruses containing integrase mutations associated with resistance to other integrase inhibitors", "format": "cell-based, HIV", "text": "In preclinical laboratory experiments, it has been possible to select viruses resistant to integrase inhibitors in structural classes other than those embraced by the present invention, such as diketo acids, naphthyridine carboxamides, and dihydropyrimidine carboxamides. Mutations in the integrase gene that confer resistance (defined herein as greater than or equal to a 10-fold loss of sensitivity) to such compounds include T66I/S153Y, N155S, and F121Y. Certain compounds of the present invention have less than a 10-fold loss in sensitivity against viruses containing these and other mutations associated with resistance to other integrase inhibitors, and thus can be effective inhibitors of such viruses. Compounds of the present invention which are effective against such viruses include, for example, the compounds of Examples 37, 50, 56, 62, 69, 86, 87, 88, 151, 153, 159-A, 159-B, 166, 189, 193, and 205."}
{"smiles": "CCN1CC(CO)n2c(c(O)c3c(=O)n(Cc4ccc(F)cc4)nc(C)c32)C1=O", "note": "(racemic) [Example 56, 8-Ethyl-2-(4-fluorobenzyl)-10-hydroxy-4-methyl-6-(hydroxymethyl)-7,8-dihydropyrazino[1′,2′:1,5]pyrrolo[2,3-d]pyridazine-1,9(2H,6H)-dione]", "effective against viruses with integrase resistance mutations": "effective"}
{"smiles": "CCN1CC(C)n2c(c(O)c3c(=O)n(Cc4ccc(F)c(Cl)c4)nc(N(CC)S(C)(=O)=O)c32)C1=O", "note": "(racemic) [Example 159-B, N-[2-(3-Chloro-4-fluorobenzyl)-10-hydroxy-8-ethyl-6-methyl-1,9-dioxo-1,2,6,7,8,9-hexahydropyrazino[1′,2′:1,5]pyrrolo[2,3-d]pyridazin-4-yl]-N-ethylmethanesulfonamide]", "effective against viruses with integrase resistance mutations": "effective"}
{"smiles": "Cc1nn(Cc2ccc(F)cc2)c(=O)c2c(O)c3n(c12)C(C)CN(C)C3=O", "note": "(stereo not shown) [Example 37, 2-(4-Fluorobenzyl)-10-hydroxy-4,6,8-trimethyl-7,8-dihydropyrazino[1′,2′:1,5]-pyrrolo[2,3-d]pyridazine-1,9(2H,6H)-dione]", "effective against viruses with integrase resistance mutations": "effective"}
{"smiles": "Cc1nn(Cc2ccc(F)cc2)c(=O)c2c(O)c3n(c12)[C@@H](C)CN(C(C)C)C3=O", "note": "[Example 50, 6(S)-2-(4-Fluorobenzyl)-10-hydroxy-8-isopropyl-4,6-dimethyl-7,8-dihydropyrazino[1′,2′:1,5]pyrrolo[2,3-d]pyridazine-1,9(2H,6H)-dione]", "effective against viruses with integrase resistance mutations": "effective"}
{"smiles": "CCN1C[C@H](C)n2c(c(O)c3c(=O)n(Cc4ccc(F)c(Cl)c4)nc(C(=O)NC)c32)C1=O", "note": "[Example 62, 6(S)-2-(3-Chloro-4-fluorobenzyl)-8-ethyl-10-hydroxy-N,6-dimethyl-1,9-dioxo-1,2,6,7,8,9-hexahydropyrazino[1′,2′:1,5]pyrrolo[2,3-d]pyridazine-4-carboxamide]", "effective against viruses with integrase resistance mutations": "effective"}
{"smiles": "CCNC(=O)c1nn(Cc2ccc(F)c(Cl)c2)c(=O)c2c(O)c3n(c12)CCN(C)C3=O", "note": "[Example 69, 2-(3-Chloro-4-fluorobenzyl)-N-ethyl-10-hydroxy-8-methyl-1,9-dioxo-1,2,6,7,8,9-hexahydropyrazino[1′,2′:1,5]pyrrolo[2,3-d]pyridazine-4-carboxamide]", "effective against viruses with integrase resistance mutations": "effective"}
{"smiles": "CCNC(=O)c1nn(Cc2ccc(F)c(Cl)c2)c(=O)c2c(O)c3n(c12)[C@@H](C)CN(C(C)C)C3=O", "note": "[Example 86, 6(S)-2-(3-Chloro-4-fluorobenzyl)-10-hydroxy-8-isopropyl-N-ethyl-6-methyl-1,9-dioxo-1,2,6,7,8,9-hexahydropyrazino[1′,2′:1,5]pyrrolo[2,3-d]pyridazine-4-carboxamide]", "effective against viruses with integrase resistance mutations": "effective"}
{"smiles": "CCNC(=O)c1nn(Cc2ccc(F)cc2)c(=O)c2c(O)c3n(c12)[C@@H](C)CN(C(C)C)C3=O", "note": "[Example 87, 6(S)-2-(4-Fluorobenzyl)-10-hydroxy-8-isopropyl-N-ethyl-6-methyl-1,9-dioxo-1,2,6,7,8,9-hexahydropyrazino[1′,2′:1,5]pyrrolo[2,3-d]pyridazine-4-carboxamide]", "effective against viruses with integrase resistance mutations": "effective"}
{"smiles": "CC(C)N1C[C@H](C)n2c(c(O)c3c(=O)n(Cc4ccc(F)c(Cl)c4)nc(C(=O)N(C)C)c32)C1=O", "note": "[Example 88, 6(S)-2-(3-Chloro-4-fluorobenzyl)-10-hydroxy-8-isopropyl-N,N,6-trimethyl-1,9-dioxo-1,2,6,7,8,9-hexahydropyrazino[1′,2′:1,5]pyrrolo[2,3-d]pyridazine-4-carboxamide]", "effective against viruses with integrase resistance mutations": "effective"}
{"smiles": "CCN1C[C@H](C)n2c(c(O)c3c(=O)n(Cc4ccc(F)c(Cl)c4)nc(N(C)S(C)(=O)=O)c32)C1=O", "note": "[Example 151, N-[(6S)-2-(3-Chloro-4-fluorobenzyl)-10-hydroxy-8-ethyl-6-methyl-1,9-dioxo-1,2,6,7,8,9-hexahydropyrazino[1′,2′:1,5]pyrrolo[2,3-d]pyridazin-4-yl]-N-methylmethanesulfonamide]", "effective against viruses with integrase resistance mutations": "effective"}
{"smiles": "CC(C)N1C[C@H](C)n2c(c(O)c3c(=O)n(Cc4ccc(F)c(Cl)c4)nc(N(C)S(C)(=O)=O)c32)C1=O", "note": "[Example 153, N-[(6S)-2-(3-Chloro-4-fluorobenzyl)-10-hydroxy-8-isopropyl-6-methyl-1,9-dioxo-1,2,6,7,8,9-hexahydropyrazino[1′,2′:1,5]pyrrolo[2,3-d]pyridazin-4-yl]-N-methylmethanesulfonamide]", "effective against viruses with integrase resistance mutations": "effective"}
{"smiles": "CC(C)N1C[C@H](C)n2c(c(O)c3c(=O)n(Cc4ccc(F)cc4)nc(N(C)S(C)(=O)=O)c32)C1=O", "note": "[Example 159-A, N-[(6S)-2-(4-Fluorobenzyl)-10-hydroxy-8-isopropyl-6-methyl-1,9-dioxo-1,2,6,7,8,9-hexahydropyrazino[1′,2′:1,5]pyrrolo[2,3-d]pyridazin-4-yl]-N-methylmethanesulfonamide]", "effective against viruses with integrase resistance mutations": "effective"}
{"smiles": "CCN1C[C@H](C)n2c(c(O)c3c(=O)n(Cc4ccc(F)c(Cl)c4)nc(S(=O)(=O)CC)c32)C1=O", "note": "[Example 166, 6(S)-2-(3-Chloro-4-fluorobenzyl)-8-ethyl-10-hydroxy-4-(ethylsulfonyl)-6-methyl-7,8-dihydropyrazino[1′,2′:1,5]pyrrolo[2,3-d]pyridazine-1,9(2H,6H)-dione]", "effective against viruses with integrase resistance mutations": "effective"}
{"smiles": "CCN1C[C@H](C)n2c(c(O)c3c(=O)n(Cc4ccc(F)c(Cl)c4)ncc32)C1=O", "note": "[Example 189, 6(S)-2-(3-Chloro-4-fluorobenzyl)-10-hydroxy-8-ethyl-6-methyl-7,8-dihydropyrazino[1′,2′:1,5]pyrrolo[2,3-d]pyridazine-1,9(2H,6H)-dione]", "effective against viruses with integrase resistance mutations": "effective"}
{"smiles": "CC(C)N1C[C@H](C)n2c(c(O)c3c(=O)n(Cc4ccc(F)cc4)ncc32)C1=O", "note": "[Example 193, 6(S)-2-(4-Fluorobenzyl)-10-hydroxy-8-isopropyl-6-methyl-7,8-dihydropyrazino[1′,2′:1,5]pyrrolo[2,3-d]pyridazine-1,9(2H,6H)-dione]", "effective against viruses with integrase resistance mutations": "effective"}
{"smiles": "CCN1CC(CO)n2c(c(O)c3c(=O)n(Cc4ccc(F)cc4)ncc32)C1=O", "note": "(stereo not shown) [Example 205, 2-(4-Fluorobenzyl)-10-hydroxy-8-ethyl-6-hydroxymethyl-7,8-dihydropyrazino[1′,2′:1,5]pyrrolo[2,3-d]pyridazine-1,9(2H,6H)-dione]", "effective against viruses with integrase resistance mutations": "effective"}
